Source: ChEMBL document CHEMBL1147782, “Peptide inhibitors of dengue virus NS3 protease. Part 2: SAR study of tetrapeptide aldehyde inhibitors” (Bioorg Med Chem Lett, 2006)
Square brackets hold non-standard residues; d marks the D form. Peptide text beside a SMILES is read from it. * marks the point of attachment. Phe(4-guanidino) = N=C(N)Nc1ccc(C[C@H](N)C(=O)O)cc1; Bip = N[C@@H](Cc1ccc(-c2ccccc2)cc1)C(=O)O; Phe(4-CN) = N#Cc1ccc(C[C@H](N)C(=O)O)cc1; Phe(4-Cl) = N[C@@H](Cc1ccc(Cl)cc1)C(=O)O; Phe(4-Me) = Cc1ccc(C[C@H](N)C(=O)O)cc1; NMeR = CN[C@@H](CCCNC(=N)N)C(=O)O; hPhe = N[C@@H](CCc1ccccc1)C(=O)O; NMeK = CN[C@@H](CCCCN)C(=O)O; NMeNle = CCCC[C@H](NC)C(=O)O; Phg = N[C@H](C(=O)O)c1ccccc1; dNle = CCCC[C@@H](N)C(=O)O; Nle = CCCC[C@H](N)C(=O)O; Bz = O=C(c1ccccc1)*

Target: Genome polyprotein (dengue virus type 2, UniProt P29990)
Sequence (P29990 1346-1475 limits assumed): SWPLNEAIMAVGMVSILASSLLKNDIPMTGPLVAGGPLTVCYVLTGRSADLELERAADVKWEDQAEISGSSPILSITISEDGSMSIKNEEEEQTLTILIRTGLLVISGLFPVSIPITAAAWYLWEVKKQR
Sequence (P29990 1476-2093 limits assumed): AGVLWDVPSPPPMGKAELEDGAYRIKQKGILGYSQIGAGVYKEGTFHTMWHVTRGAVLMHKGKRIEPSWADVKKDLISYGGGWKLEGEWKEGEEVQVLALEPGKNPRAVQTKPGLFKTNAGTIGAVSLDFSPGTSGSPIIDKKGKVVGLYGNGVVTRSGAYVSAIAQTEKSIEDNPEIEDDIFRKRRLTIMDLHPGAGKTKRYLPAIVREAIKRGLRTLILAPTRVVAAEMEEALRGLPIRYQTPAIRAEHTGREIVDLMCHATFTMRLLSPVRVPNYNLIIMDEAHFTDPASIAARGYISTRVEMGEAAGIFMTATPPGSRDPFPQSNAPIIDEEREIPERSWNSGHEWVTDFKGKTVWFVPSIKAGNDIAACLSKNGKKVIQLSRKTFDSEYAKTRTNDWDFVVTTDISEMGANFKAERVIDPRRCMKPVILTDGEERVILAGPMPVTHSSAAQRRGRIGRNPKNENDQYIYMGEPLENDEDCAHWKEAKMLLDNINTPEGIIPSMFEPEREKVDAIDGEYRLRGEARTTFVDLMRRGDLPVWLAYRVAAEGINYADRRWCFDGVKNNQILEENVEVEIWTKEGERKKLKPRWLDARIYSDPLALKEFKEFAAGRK
Assay: Inhibitory activity against dengue 2 NS3 protease fused via a linker to region of NS2B

First: CCCC[C@H](NC(=O)c1ccccc1)C(=O)N[C@@H](CCCCN)C(=O)N[C@@H](CCCN=C(N)N)C(=O)N[C@H](C=O)CCCCN (Bz-[Nle]KRK-aldehyde)
Second: CCCC[C@@H](NC(=O)c1ccccc1)C(=O)N[C@@H](CCCCN)C(=O)N[C@@H](CCCN=C(N)N)C(=O)N[C@H](C=O)CCCN=C(N)N (Bz-[dNle]KRR-aldehyde)
The Ki of the first is 2.2-fold higher: 20.5 µM for the first, 9.4 µM for the second.

Compared with CCCC[C@H](NC(=O)c1ccccc1)C(=O)N[C@@H](CCCCN)C(=O)N[C@@H](CCCN=C(N)N)C(=O)N[C@H](C=O)Cc1c[nH]c2ccccc12 (Bz-[Nle]KRW-aldehyde), CCCC[C@H](NC(=O)c1ccccc1)C(=O)N[C@@H](CCCCN)C(=O)N[C@@H](CCCN=C(N)N)C(=O)N[C@H](C=O)Cc1ccccc1 (Bz-[Nle]KRF-aldehyde) is 2.1-fold higher in Ki: 7.5 µM for the first, 15.9 µM for the second.

Going from CCCC[C@H](NC(=O)c1ccccc1)C(=O)N(C)[C@@H](CCCCN)C(=O)N[C@@H](CCCN=C(N)N)C(=O)N[C@H](C=O)CCCN=C(N)N (Bz-[Nle][NMeK]RR-aldehyde) to CCCC[C@H](NC(=O)c1ccccc1)C(=O)N[C@@H](CCCCN)C(=O)N(C)[C@@H](CCCN=C(N)N)C(=O)N[C@H](C=O)CCCN=C(N)N (Bz-[Nle]K[NMeR]R-aldehyde), the Ki falls from 113 µM to 47.4 µM (2.4-fold). The second binds more tightly here.

Compared with CCCC[C@H](NC(=O)c1ccccc1)C(=O)N[C@@H](CCCCN)C(=O)N[C@H](CCCN=C(N)N)C(=O)N[C@H](C=O)CCCN=C(N)N (Bz-[Nle]K[dR]R-aldehyde), CCCC[C@H](NC(=O)c1ccccc1)C(=O)N[C@@H](CCCCN)C(=O)N[C@@H](CCCN=C(N)N)C(=O)N[C@@H](C=O)CCCN=C(N)N (Bz-[Nle]KR[dR]-aldehyde) is 2.3-fold lower in Ki: 115 µM for the first, 51 µM for the second.

Going from CCCC[C@H](NC(=O)c1ccccc1)C(=O)N[C@@H](CCCCN)C(=O)N[C@@H](CCCN=C(N)N)C(=O)N[C@@H](C)C=O (Bz-[Nle]KRA-aldehyde) to CCCC[C@H](NC(=O)c1ccccc1)C(=O)N[C@@H](CCCCN)C(=O)N[C@@H](C)C(=O)N[C@H](C=O)CCCN=C(N)N (Bz-[Nle]KAR-aldehyde), the Ki rises from 193 µM to > 500 µM.

Going from NCCCC[C@H](NC(=O)[C@H](Cc1ccccc1)NC(=O)c1ccccc1)C(=O)N[C@@H](CCCN=C(N)N)C(=O)N[C@H](C=O)CCCN=C(N)N (Bz-FKRR-aldehyde) to CCCC[C@H](NC(=O)c1ccccc1)C(=O)N[C@@H](Cc1ccccc1)C(=O)N[C@@H](CCCN=C(N)N)C(=O)N[C@H](C=O)CCCN=C(N)N (Bz-[Nle]FRR-aldehyde), the Ki rises from 6.8 µM to 15.8 µM (2.3-fold). The first binds more tightly here.

First: CCCC[C@H](NC(=O)c1ccccc1)C(=O)N[C@@H](CCCCN)C(=O)N[C@@H](Cc1ccccc1)C(=O)N[C@H](C=O)CCCNC(=N)N (Bz-[Nle]KFR-aldehyde)
Second: CCCC[C@H](NC(=O)c1ccccc1)C(=O)N[C@@H](CCCCN)C(=O)N[C@@H](CCCN=C(N)N)C(=O)N[C@H](C=O)CCc1ccccc1 (Bz-[Nle]KR[hPhe]-aldehyde)
The Ki of the first is lower: 40.7 µM for the first, > 500 µM for the second.

Compared with CCCC[C@H](NC(=O)c1ccccc1)C(=O)N[C@@H](CCCCN)C(=O)N[C@@H](CCCN=C(N)N)C(=O)N[C@H](C=O)Cc1ccc(-c2ccccc2)cc1 (Bz-[Nle]KR[Bip]-aldehyde), CCCC[C@H](NC(=O)c1ccccc1)C(=O)N[C@@H](CCCCN)C(=O)N[C@@H](CCCN=C(N)N)C(=O)N[C@H](C=O)Cc1ccc(C)cc1 (Bz-[Nle]KR[Phe(4-Me)]-aldehyde) is 1.9-fold lower in Ki: 11.6 µM for the first, 6 µM for the second.

Going from CCCC[C@H](NC(=O)c1ccccc1)C(=O)N[C@@H](CCCCN)C(=O)N[C@@H](CCCN=C(N)N)C(=O)N[C@H](C=O)c1ccccc1 (Bz-[Nle]KR[Phg]-aldehyde) to CCCC[C@H](NC(=O)c1ccccc1)C(=O)N[C@@H](CCCCN)C(=O)N[C@@H](CCCN=C(N)N)C(=O)N[C@H](C=O)Cc1ccc(Cl)cc1 (Bz-[Nle]KR[Phe(4-Cl)]-aldehyde), the Ki rises from 33 µM to 138 µM (4.2-fold). The first binds more tightly here.

Compared with CCCC[C@@H](C(=O)N[C@@H](CCCCN)C(=O)N[C@@H](CCCN=C(N)N)C(=O)N[C@H](C=O)CCCN=C(N)N)N(C)C(=O)c1ccccc1 (Bz-[NMeNle]KRR-aldehyde), CCCC[C@H](NC(=O)c1ccccc1)C(=O)N[C@H](CCCCN)C(=O)N[C@@H](CCCN=C(N)N)C(=O)N[C@H](C=O)CCCN=C(N)N (Bz-[Nle][dK]RR-aldehyde) is 1.5-fold lower in Ki: 43.7 µM for the first, 28.6 µM for the second.

First: CCCC[C@H](NC(=O)c1ccccc1)C(=O)N[C@@H](CCCCN)C(=O)N[C@@H](CCCNC(=N)N)C(=O)N[C@H](C=O)Cc1ccc(NC(=N)N)cc1 (Bz-[Nle]KR[Phe(4-guanidino)]-aldehyde)
Second: CCCC[C@H](NC(=O)c1ccccc1)C(=O)N[C@@H](CCCCN)C(=O)N[C@@H](CCCNC(=N)N)C(=O)N[C@H](C=O)CCCNC(=N)N (Bz-[Nle]KRR-aldehyde)
The Ki of the first is 2.1-fold lower: 2.8 µM for the first, 5.8 µM for the second. The first binds more tightly here.

First: CCCC[C@H](NC(=O)c1ccccc1)C(=O)N[C@@H](CCCCN)C(=O)N1CCC[C@H]1C(=O)N[C@H](C=O)CCCN=C(N)N (Bz-[Nle]KPR-aldehyde)
Second: CCCC[C@H](NC(=O)c1ccccc1)C(=O)N1CCC[C@H]1C(=O)N[C@@H](CCCN=C(N)N)C(=O)N[C@H](C=O)CCCN=C(N)N (Bz-[Nle]PRR-aldehyde)
The Ki of the first is 1.8-fold higher: 109 µM for the first, 61.4 µM for the second.

Compared with NC(N)=NCCC[C@@H](C=O)NC(=O)[C@H](CCCN=C(N)N)NC(=O)c1ccccc1 (Bz-Arg-Arg-aldehyde), NCCCC[C@H](NC(=O)c1ccccc1)C(=O)N[C@@H](CCCN=C(N)N)C(=O)N[C@H](C=O)CCCN=C(N)N (Bz-Lys-Arg-Arg-aldehyde) is 8-fold lower in Ki: 12 µM for the first, 1.5 µM for the second.

Compared with C[C@H](NC(=O)c1ccccc1)C(=O)N[C@@H](CCCCN)C(=O)N[C@@H](CCCN=C(N)N)C(=O)N[C@H](C=O)CCCN=C(N)N (Bz-AKRR-aldehyde), CCCC[C@H](NC(=O)c1ccccc1)C(=O)N[C@@H](C)C(=O)N[C@@H](CCCN=C(N)N)C(=O)N[C@H](C=O)CCCN=C(N)N (Bz-[Nle]ARR-aldehyde) is 4.2-fold higher in Ki: 5.3 µM for the first, 22.1 µM for the second. The first binds more tightly here.

First: CCCC[C@H](NC(=O)c1ccccc1)C(=O)N[C@@H](CCCCN)C(=O)N[C@@H](CCCCN)C(=O)N[C@H](C=O)CCCNC(=N)N (Bz-[Nle]KKR-aldehyde)
Second: CCCC[C@H](NC(=O)c1ccccc1)C(=O)N[C@@H](CCCCN)C(=O)N[C@@H](CCCN=C(N)N)C(=O)N[C@H](C=O)Cc1ccc(C#N)cc1 (Bz-[Nle]KR[Phe(4-CN)]-aldehyde)
The Ki of the first is 2.2-fold higher: 41.3 µM for the first, 18.6 µM for the second. The second binds more tightly here.
